Reference: US20110263707A1, “MOSQUITO REPELLENT” (BIO & HNT, INC., priority 2007, published 2011)
Several values for one entry are separate records, joined by “and”; a condition that tells them apart may be missing. Equal values may be shown once.

Tested on: Aedes aegypti
Experiment: Examination of repellent activity using skin test (treated forearm in cage of mated female mosquitoes)
Type: in vivo
Conditions: for Effective repellency duration (average ± standard deviation): protection time until arm bitten by two cumulative mosquitoes
From the text: In this embodiment, Aedes aegypti was used test mosquitoes. The Aedes aegypti was supplied from Korea Research Institute of Bioscience and Biotechnology and reared indoor from generation to generation. The larvae of the Aedes aegypti were reared in a plastic container of 22×14×7 cm containing distilled water with a one to one mixture of chicken feed and yeast. Mosquito pupae were transferred into a paper cup and then placed in a rearing cage to emerge as adults. Here, the rearing cage was constructed with metal net. Males and females of the adult mosquitoes at one to one ratio were put in a rearing cage for two or three days for mating. The female mosquitoes were then used for repellency tests. Eight percent (8%) sugar water was supplied for the adult mosquitoes. The following rearing conditions were maintained: light condition of 16 h:8 h (day:night), temperature of 27±2° C., and relative humidity of 80±10%. In order to examine effectiveness of the mosquito repellents of the prepared sample solutions, one (1) […] of a sample solution was uniformly applied, using a metal rod, on a forearm of a volunteer human test subject between a wrist and an elbow. Thereafter, the arm treated with the test solution was inserted in a bioassay cage constructed with Plexiglass of 50×50×50 cm containing approximately 100 mated female mosquitoes. The number of mosquitoes trying to bite was recorded for three minutes in every thirty minutes for up to 4 hours. The time required to get the arm bitten by two cumulative mosquitoes was regarded as effective repellency duration. A net window of 40×40 cm was present at each side and top of the Plexiglass bioassay cage to allow air ventilation. A 15×15 cm hole was prepared at the front side of the Plexiglass bioassay cage and a long net sleeve was attached to the hole so that the test arm could be put into the cage for repellency test. At the beginning of each repellency test, an arm treated with solvent only was placed in the bioassay cage containing mosquitoes, in order to examine blood feeding activity of the mated female test mosquitoes. This test with the bioassay cage was carried out only when the arm was bitten by at least two mosquitoes for initial three minutes. In Table 3 and Table 4, the repellent efficiency was calculated using the following Equation 1. [formula]

[1] = concentration 2% (0.05 mg/cm^3), 30 minutes
[2] = concentration 2% (0.05 mg/cm^3), 60 minutes
[3] = concentration 2% (0.05 mg/cm^3), 90 minutes
[4] = concentration 2% (0.05 mg/cm^3), 120 minutes
[5] = concentration 2% (0.05 mg/cm^3), 150 minutes
[6] = concentration 2% (0.05 mg/cm^3), 180 minutes
[7] = concentration 2% (0.05 mg/cm^3), 210 minutes
[8] = concentration 2% (0.05 mg/cm^3), 240 minutes
[9] = concentration 2% in 91% isopropyl alcohol (0.05 mg/cm^3)
[10] = concentration 10% (0.25 mg/cm^3), 30 minutes
[11] = concentration 10% (0.25 mg/cm^3), 60 minutes
[12] = concentration 10% (0.25 mg/cm^3), 90 minutes
[13] = concentration 10% (0.25 mg/cm^3), 120 minutes
[14] = concentration 10% (0.25 mg/cm^3), 150 minutes
[15] = concentration 10% (0.25 mg/cm^3), 180 minutes
[16] = concentration 10% (0.25 mg/cm^3), 210 minutes
[17] = concentration 10% (0.25 mg/cm^3), 240 minutes
[18] = concentration 10% in 91% isopropyl alcohol (0.25 mg/cm^3), maximum measurement time 240 minutes

CC(C)=CCC/C(C)=C\C(=O)O [Neric acid, (Z,E)-3,7-dimethyl-2,6-octadienoic acid]
Repellent efficiency (%) per time [1]: 100% | Repellent efficiency (%) per time [2]: 83.1% | Repellent efficiency (%) per time [3]: 70.4% | Repellent efficiency (%) per time [4]: 52.1% | Repellent efficiency (%) per time [5]: 39.4% | Repellent efficiency (%) per time [6]: 26.8% | Repellent efficiency (%) per time [7]: 18.3% | Repellent efficiency (%) per time [8]: 14.1% | Effective repellency duration (average ± standard deviation) [9]: 106 ± 16.3 min | Effective repellency duration (average ± standard deviation) (concentration 2% in 91% isopropyl alcohol (0.05 mg/cm^3), listed as neric acid): 106 min | Repellent efficiency (%) per time [10]: 100% | Repellent efficiency (%) per time [11]: 100% | Repellent efficiency (%) per time [12]: 100% | Repellent efficiency (%) per time [13]: 100% | Repellent efficiency (%) per time [14]: 100% | Repellent efficiency (%) per time [15]: 100% | Repellent efficiency (%) per time [16]: 100% | Repellent efficiency (%) per time [17]: 95.3% | Effective repellency duration (average ± standard deviation) [18]: 240 ± 0 min | Effective repellency duration (average ± standard deviation) (concentration 10% in 91% isopropyl alcohol (0.25 mg/cm^3), maximum measurement time 240 minutes, listed as neric acid): 240 min

CCN(CC)C(=O)c1cccc(C)c1 [DEET, N,N-diethyl-m-toluamide]
Repellent efficiency (%) per time [1]: 100% | Repellent efficiency (%) per time [2]: 0% | Repellent efficiency (%) per time [3]: 0% | Repellent efficiency (%) per time [4]: 0% | Repellent efficiency (%) per time [5]: 0% | Repellent efficiency (%) per time [6]: 0% | Repellent efficiency (%) per time [7]: 0% | Repellent efficiency (%) per time [8]: 0% | Effective repellency duration (average ± standard deviation) [9]: 70 min and 70 ± 10.0 min | Repellent efficiency (%) per time [10]: 100% | Repellent efficiency (%) per time [11]: 100% | Repellent efficiency (%) per time [12]: 100% | Repellent efficiency (%) per time [13]: 100% | Repellent efficiency (%) per time [14]: 87.5% | Repellent efficiency (%) per time [15]: 81.3% | Repellent efficiency (%) per time [16]: 78.1% | Repellent efficiency (%) per time [17]: 71.9% | Effective repellency duration (average ± standard deviation) [18]: 218 min and 218 ± 10.8 min

CCC(C)OC(=O)N1CCCCC1CCO (centres unmarked) [Picadirin]
Repellent efficiency (%) per time [10]: 85.0% | Repellent efficiency (%) per time [11]: 85.0% | Repellent efficiency (%) per time [12]: 85.0% | Repellent efficiency (%) per time [13]: 80.0% | Repellent efficiency (%) per time [14]: 75.0% | Repellent efficiency (%) per time [15]: 72.5% | Repellent efficiency (%) per time [16]: 62.5% | Repellent efficiency (%) per time [17]: 47.5% | Effective repellency duration (average ± standard deviation) [18]: 158 min and 158 ± 27.5 min
